Laboratory results taken from US6906205B2, “Spiro and dispiro 1,2,4-trioxolane antimalarials” (Medicines for Malaria Venture MMV, priority 2002, dated 2005).
In brackets after ≈: the same amount, converted by molar mass. Read-outs that look alike come from different tables or passages of the source.

Tests used:
[1] = system: P. falciparum NF54 strain (sensitive to standard antimalarials); assay: semiautomated microdilution assay, [3H]-hypoxanthine incorporation, NF54 strain; type: cell-based, Plasmodium falciparum; details: for IC50: Plasmodium falciparum, read-out: IC50 (ng/ml) NF54
Procedure: (§1) Various OZ compounds were tested by the semiautomated microdilution assay against intraerythrocytic forms of Plasmodium falciparum derived from asynchronous stock cultures.
(§2) Fifty percent inhibitory concentration (IC50) were estimated by Logit regression analysis.

[2] = system: P. falciparum K1 strain (Thailand resistant to chloroquine); assay: semiautomated microdilution assay, [3H]-hypoxanthine incorporation, K1 strain; type: cell-based, Plasmodium falciparum; details: for IC50: Plasmodium falciparum, read-out: IC50 (ng/ml) K1
Procedure: as §1, §2

[3] = system: ANKA strain of P. berghei; assay: single dose STI in vivo screen in infected mice; design: species or system Plasmodium berghei; details: for Activity (%) po / Activity (%) sc / Activity (%) SSVpo: percent reduction in parasitemia day 3 post-infection, mice; for Activity (%) po / Survival (days) po: single 10 mg/kg po in 3% ethanol and 7% Tween 80; for Activity (%) sc / Survival (days) sc: single 10 mg/kg sc in 3% ethanol and 7% Tween 80; for Survival (days) po / Survival (days) sc / Survival (days) SSVpo: untreated control 5.6 ± 0.3; for Activity (%) SSVpo: single po dose in standard suspending vehicle (SSV); for Survival (days) SSVpo: single po dose in SSV
Outline: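 Groups of 3-5 Moro SPF or NMRI mice infected with the ANKA strain of P. berghei received a single dose of trioxolane on day one post-infection. The compound was given in 3% ethanol and 7% Tween 80 or in SSV (0.5% w/v CMC, 0.5% v/v benzyl alcohol, 0.4% v/v Tween 80, 0.9% w/v sodium chloride in water). Antimalarial activity was scored as percent reduction in parasitemia on day three and as survival time versus untreated controls. Survival to day 30 counted as cure.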

| SMILES | IC50 (ng/ml) NF54 ([1]; NF54 strain, 72 h incubation) | IC50 (ng/ml) K1 ([2]; K1 strain, 72 h incubation) | Activity (%) po [3] | Activity (%) sc [3] | Survival (days) po [3] | Survival (days) sc [3] | IC50 ([1]; NF54 strain, 72 h incubation) [ng/mL] | IC50 ([2]; K1 strain, 72 h incubation) [ng/mL] | Activity (%) SSVpo [3] [%] | Survival (days) SSVpo [3] [days] | IC50 ([1]; NF54, 72 h) [ng/mL] | IC50 ([2]; K1, 72 h) [ng/mL] |
| --- | --- | --- | --- | --- | --- | --- | --- | --- | --- | --- | --- | --- |
| c1ccc(CC2(Cc3ccccc3)OOC3(O2)C2CC4CC(C2)CC3C4)cc1 (stereo not drawn) [OZ52] | 3.0 ng/mL (≈ 7.97 nM) | 3.1 ng/mL (≈ 8.23 nM) | 88% | 99.7% | 6.7 days | 8.0 days | – | – | – | – | – | – |
| O=C(O)CON=C1CCC2(CC1)OOC1(O2)C2CC3CC(C2)CC1C3 (stereo not drawn) [OZ54] | 35 ng/mL (≈ 99.6 nM) | 32 ng/mL (≈ 91.1 nM) | 85% | 97% | 7.0/NA/7.0 days | 7.0/NA/7.0 days | – | – | – | – | – | – |
| O=S(=O)(c1ccc(Cl)cc1)N1CCC2(CC1)OOC1(O2)C2CC3CC(C2)CC1C3 (stereo not drawn) [OZ57] | 2.8 ng/mL (≈ 6.36 nM) | 3.1 ng/mL (≈ 7.05 nM) | 32% | 98.4% | 6.0 days | 7.7 days | – | – | – | – | – | – |
| O=C(O)CCC(=O)N1CCC2(CC1)OOC1(O2)C2CC3CC(C2)CC1C3 (stereo not drawn) [OZ58] | 7.2 ng/mL (≈ 19.7 nM) | 7.1 ng/mL (≈ 19.4 nM) | 39% | 52% | 6.0 days | 6.3 days | – | – | – | – | – | – |
| COc1ccc(S(=O)(=O)N2CCC3(CC2)OOC2(O3)C3CC4CC(C3)CC2C4)cc1 (stereo not drawn) [OZ59] | 1.3 ng/mL (≈ 2.98 nM) | 1.4 ng/mL (≈ 3.21 nM) | 51% | 99.95% | 6.0 days | 10.0 days | – | – | – | – | – | – |
| O=S(=O)(c1ccccc1)N1CCC2(CC1)OOC1(O2)C2CC3CC(C2)CC1C3 (stereo not drawn) [OZ60] | 1.2 ng/mL (≈ 2.96 nM) | 1.1 ng/mL (≈ 2.71 nM) | 71% | 100% | 6.0 days | 10.3 days | – | – | – | – | – | – |
| CCOC(=O)CC1CCC2(CC1)OOC1(O2)C2CC3CC(C2)CC1C3 (stereo not drawn) [OZ61] | – | – | 91% | 96% | 7.0 days | 7.3 days | 0.53 (≈ 1.51 nM) | 0.52 (≈ 1.48 nM) | – | – | – | – |
| c1ccc(C2CCC3(CC2)OOC2(CCC(c4ccccc4)CC2)O3)cc1 (stereo not drawn) [OZ62] | 28 ng/mL (≈ 76.8 nM) | 33 ng/mL (≈ 90.5 nM) | 0/NA/0% | 0/NA/0% | 6.0 days | 5.0 days | – | – | – | – | – | – |
| N#CC1(c2ccccc2)CCC2(CC1)OOC1(O2)C2CC3CC(C2)CC1C3 (stereo not drawn) [OZ63] | 1.6/1.6 ng/ml | 1.6/1.6 ng/ml | 99.62% | 99.91% | 7.3 days | 9.3 days | – | – | 65 | 6.0 | – | – |
| CC(C)(C)COC(=O)C1CCC2(CC1)OOC1(O2)C2CC3CC(C2)CC1C3 (stereo not drawn) [OZ64] | 1.3 ng/mL (≈ 3.43 nM) | 1.5 ng/mL (≈ 3.96 nM) | 95% | 98% | 7.3 days | 8.0 days | – | – | – | – | – | – |
| O=S(=O)([O-])OC1CCC2(CC1)OOC1(O2)C2CC3CC(C2)CC1C3.[Na+] (stereo not drawn) [OZ65] | 65 ng/mL | 57 ng/mL | 0% | 1% | 5.0/NA/5.0 days | 5.0/NA/5.0 days | – | – | – | – | – | – |
| Fc1ccc(C2(c3ccc(F)cc3)OOC3(CCC(c4ccccc4)CC3)O2)cc1 (stereo not drawn) [OZ66] | 36 ng/mL (≈ 88.1 nM) | 44 ng/mL (≈ 108 nM) | 0/NA/0% | 0/NA/0% | 5.3 days | 5.7 days | – | – | – | – | – | – |
| CC(=O)OC1(c2ccc(F)cc2)CCC2(CC1)OOC1(O2)C2CC3CC(C2)CC1C3 (stereo not drawn) [OZ69] | 1.4 ng/mL (≈ 3.36 nM) | 1.6 ng/mL (≈ 3.84 nM) | 56% | 40% | 6.3/NA/6.3 days | 6.3/NA/6.3 days | – | – | – | – | – | – |
| CCOC(=O)C1CCC2(CC1)OOC1(O2)C2CC3CC(C2)CC1C3 (stereo not drawn) [OZ70] | – | – | 98% | 94% | 7.7/NA/7.7 days | 7.7/NA/7.7 days | 1.1 (≈ 3.27 nM) | 1.2 (≈ 3.57 nM) | – | – | – | – |
| CCN(CC)C(=O)C1CCC2(CC1)OOC1(O2)C2CC3CC(C2)CC1C3 (stereo not drawn) [OZ73] | 8.2 ng/mL (≈ 22.6 nM) | 6.5 ng/mL (≈ 17.9 nM) | 27% | 36% | 6.0 days | 6.7 days | – | – | – | – | – | – |
| O=C(OC1CCC2(CC1)OOC1(O2)C2CC3CC(C2)CC1C3)c1ccccc1 (stereo not drawn) [OZ74] | 3.5 ng/mL (≈ 9.1 nM) | 2.3 ng/mL (≈ 5.98 nM) | 63% | 99.97% | 6.3 days | 10.0 days | – | – | – | – | – | – |
| N#CC1(c2ccc(Cl)c(Cl)c2)CCC2(CC1)OOC1(O2)C2CC3CC(C2)CC1C3 (stereo not drawn) [OZ75] | 4.3 ng/mL (≈ 9.9 nM) | 2.4 ng/mL (≈ 5.53 nM) | 77% | 5% | 7.3 days | 5.0 days | – | – | – | – | – | – |
| COC1(c2ccc(F)cc2)CCC2(CC1)OOC1(O2)C2CC3CC(C2)CC1C3 (stereo not drawn) [OZ77] | 2.2 ng/mL (≈ 5.66 nM) | 1.4 ng/mL (≈ 3.6 nM) | 99.9% | 98% | 9.0 days | 8.3 days | – | – | 74 | 6.0 | – | – |
| CC(=O)OCC(=O)N1CCC2(CC1)OOC1(O2)C2CC3CC(C2)CC1C3 (stereo not drawn) [OZ82] | 1.2 ng/mL (≈ 3.28 nM) | 0.48 ng/mL (≈ 1.31 nM) | 91% | 79% | 7.3 days | 7.0 days | – | – | – | – | – | – |
| c1ccc2c(c1)CCCC21OOC2(O1)C1CC3CC(C1)CC2C3 (stereo not drawn) [OZ84] | 2.1 ng/mL (≈ 6.72 nM) | 1.4 ng/mL (≈ 4.48 nM) | 92% | 99.99% | 7.7 days | 14.7 days | – | – | – | – | – | – |
| c1ccc2c(c1)CCC1(C2)OOC2(O1)C1CC3CC(C1)CC2C3 (stereo not drawn) [OZ85] | 1.8 ng/mL (≈ 5.76 nM) | 0.86 ng/mL (≈ 2.75 nM) | 34% | 99.7% | 6.0 days | 8.3 days | – | – | – | – | – | – |
| O=S(=O)(c1ccc(F)cc1)N1CCC2(CC1)OOC1(O2)C2CC3CC(C2)CC1C3 (stereo not drawn) [OZ86] | 2.0 ng/mL (≈ 4.72 nM) | 0.80 ng/mL (≈ 1.89 nM) | 77% | 99.9% | 6.7 days | 11.3 days | – | – | – | – | – | – |
| O=C(CCl)N1CCC2(CC1)OOC1(O2)C2CC3CC(C2)CC1C3 (stereo not drawn) [OZ87] | 4.4 ng/mL (≈ 12.9 nM) | 3.6 ng/mL (≈ 10.5 nM) | 22% | 53% | 5.7 days | 6.0 days | – | – | – | – | – | – |
| O=C(OCCC1CCC2(CC1)OOC1(O2)C2CC3CC(C2)CC1C3)c1ccc([N+](=O)[O-])cc1 (stereo not drawn) [OZ88] | 4.2 ng/mL (≈ 9.18 nM) | 5.7 ng/mL (≈ 12.5 nM) | 62% | 99.1% | 6.0 days | 11.7 days | – | – | – | – | – | – |
| OCCC1CCC2(CC1)OOC1(O2)C2CC3CC(C2)CC1C3 (stereo not drawn) [OZ89] | – | – | 94% | 99.8% | 7.3 days | 8.7 days | – | – | 89 | 6.7 | 0.75 (≈ 2.43 nM) | 0.3 (≈ 0.973 nM) |
| CC1(O)CCC2(CC1)OOC1(O2)C2CC3CC(C2)CC1C3 (stereo not drawn) [OZ90] | – | – | 89% | 99% | 7.0 days | 8.0 days | – | – | 95 | 7.0 | 0.84 (≈ 2.85 nM) | 0.44 (≈ 1.49 nM) |
| CC1(C)C2CCC1(CS(=O)(=O)N1CCC3(CC1)OOC1(O3)C3CC4CC(C3)CC1C4)C(=O)C2 (stereo not drawn) [OZ91] | 0.42 ng/mL (≈ 0.876 nM) | 1.4 ng/mL (≈ 2.92 nM) | 20% | 85% | 5.7 days | 7.3 days | – | – | 0 | 6.0 | – | – |
| CCCCS(=O)(=O)N1CCC2(CC1)OOC1(O2)C2CC3CC(C2)CC1C3 (stereo not drawn) [OZ92] | 0.40 ng/mL (≈ 1.04 nM) | 1.6 ng/mL (≈ 4.15 nM) | 81% | 99.98% | 6.7 days | 10.0 days | – | – | 35 | 6.3 | – | – |
